Assay type in all cases: biochemical
One assay concerns the target T1, Lck (Homo sapiens, UniProt P06239).
T1 construct: Kinases are expressed as either kinase domains or full length constructs; made in house
The experiment in a line: Kinase inhibition assay (33P transfer), Lck. The settings on record: Table 3; read-out: Lck-1. An outline of the steps: (§1)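 Enzyme activity is taken as the amount of 33PO4 moved from ATP onto poly(Glu, Tyr) 4:1 or poly(Arg, Ser) 3:1 fixed to the plate surface. Unbound label is removed with 0.5% phosphoric acid before scintillation counting.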

The next assay deals with T2, Lyn (Homo sapiens, UniProt P07948).
T2 construct: Kinases are expressed as either kinase domains or full length constructs; made in house
The experiment in a line: Kinase inhibition assay (33P transfer), Lyn. The conditions noted are these: Table 6, Lyn-1 kinase inhibition class. In outline: (§2)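 Each enzyme, purified to near homogeneity by affinity chromatography, was incubated with ATP carrying 33P and a substrate polymer fixed to the plate. Unbound label was removed with dilute phosphoric acid (0.5%) before adding scintillant and counting. Potency is given as the compound level cutting label uptake by 50%.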

For another assay, the target named is T3, Src (Homo sapiens, UniProt P12931).
T3 construct: Kinases are expressed as either kinase domains or full length constructs; made in house
As to the kind of experiment: Kinase inhibition assay (33P transfer), Src. The conditions noted are these: Table 6, Src-1 kinase inhibition class. An outline of the steps:
as §2

For a further assay, the target named is T4, Zap-70 (Homo sapiens, UniProt P43403).
T4 construct: Kinases are expressed as either kinase domains or full length constructs; made in house
T4 sequence (P43403 1-619): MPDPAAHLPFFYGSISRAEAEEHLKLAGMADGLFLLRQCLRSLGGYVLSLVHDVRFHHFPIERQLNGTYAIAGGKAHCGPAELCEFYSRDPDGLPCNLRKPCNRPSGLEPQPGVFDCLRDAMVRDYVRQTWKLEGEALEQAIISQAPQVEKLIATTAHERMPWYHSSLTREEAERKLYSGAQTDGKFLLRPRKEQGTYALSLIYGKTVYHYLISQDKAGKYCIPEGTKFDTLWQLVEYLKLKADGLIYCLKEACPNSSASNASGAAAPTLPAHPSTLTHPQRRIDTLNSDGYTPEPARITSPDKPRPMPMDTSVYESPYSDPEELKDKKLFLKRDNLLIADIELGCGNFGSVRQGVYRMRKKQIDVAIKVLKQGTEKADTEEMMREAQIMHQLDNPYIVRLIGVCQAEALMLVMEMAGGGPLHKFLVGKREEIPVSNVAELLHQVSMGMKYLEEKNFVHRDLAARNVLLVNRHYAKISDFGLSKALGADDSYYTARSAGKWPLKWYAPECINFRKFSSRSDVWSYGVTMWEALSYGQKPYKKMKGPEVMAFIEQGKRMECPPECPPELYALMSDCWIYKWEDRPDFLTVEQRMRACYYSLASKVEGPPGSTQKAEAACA
The experiment in a line: Kinase inhibition assay (33P transfer), Zap-70. The settings on record: Table 3; read-out: Zap-1. An outline of the steps: as §1

The next assay has as its target T5, EGFR (Homo sapiens, UniProt P00533).
T5 construct: Kinases are expressed as either kinase domains or full length constructs; made in house
As to the kind of experiment: Kinase inhibition assay (33P transfer), EGFR. The settings on record: Table 2, kinase inhibition class; read-out: EGFR-1. An outline of the steps:
as §2

The target in a further assay is T6, Tek (Homo sapiens, UniProt Q02763).
T6 construct: Kinases are expressed as either kinase domains or full length constructs; made in house
As to the kind of experiment: Kinase inhibition assay (33P transfer), Tek. The conditions noted are these: read-out: Tek-1. An outline of the steps: as §2

For the next assay, the target named is T7, EPHB4 (Homo sapiens, UniProt P54760).
T7 construct: Kinases are expressed as either kinase domains or full length constructs; made in house
T7 sequence (P54760 16-987): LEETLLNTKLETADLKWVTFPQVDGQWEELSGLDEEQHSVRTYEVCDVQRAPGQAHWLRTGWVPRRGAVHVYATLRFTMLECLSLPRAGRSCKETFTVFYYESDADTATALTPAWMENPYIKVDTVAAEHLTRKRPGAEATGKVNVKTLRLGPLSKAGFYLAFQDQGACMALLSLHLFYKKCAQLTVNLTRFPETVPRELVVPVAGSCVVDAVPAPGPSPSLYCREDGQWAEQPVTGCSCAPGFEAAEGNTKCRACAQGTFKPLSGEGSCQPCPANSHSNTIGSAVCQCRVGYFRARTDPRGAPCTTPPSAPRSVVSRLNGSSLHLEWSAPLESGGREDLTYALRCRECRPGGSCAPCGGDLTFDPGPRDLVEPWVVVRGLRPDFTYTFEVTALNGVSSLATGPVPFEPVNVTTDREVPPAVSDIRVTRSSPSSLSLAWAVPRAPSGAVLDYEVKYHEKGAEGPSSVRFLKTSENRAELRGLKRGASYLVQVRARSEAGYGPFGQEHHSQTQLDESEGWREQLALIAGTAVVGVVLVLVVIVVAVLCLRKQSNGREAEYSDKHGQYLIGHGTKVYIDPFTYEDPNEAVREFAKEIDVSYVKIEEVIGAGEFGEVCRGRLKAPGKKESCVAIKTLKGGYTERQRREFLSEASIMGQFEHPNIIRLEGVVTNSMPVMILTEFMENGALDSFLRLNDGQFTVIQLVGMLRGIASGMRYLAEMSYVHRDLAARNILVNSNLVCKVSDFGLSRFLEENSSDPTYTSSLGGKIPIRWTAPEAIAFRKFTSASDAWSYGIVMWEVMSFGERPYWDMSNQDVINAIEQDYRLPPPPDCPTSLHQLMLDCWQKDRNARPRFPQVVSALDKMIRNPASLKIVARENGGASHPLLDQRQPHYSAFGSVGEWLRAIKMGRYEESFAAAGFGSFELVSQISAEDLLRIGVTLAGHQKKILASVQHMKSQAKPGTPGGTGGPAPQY
As to the kind of experiment: Kinase inhibition assay (33P transfer), EPHB4. The settings on record: read-out: EPHB4-1.

For another assay, the target named is T8, Hck-1 (Homo sapiens, UniProt P08631).
T8 construct: Kinases are expressed as either kinase domains or full length constructs; made in house
As to the kind of experiment: Kinase inhibition assay (33P transfer), Hck. The conditions noted are these: Table 6, Hck-1 kinase inhibition class.

Another assay concerns the target T9, Ret-1 (Homo sapiens, UniProt P07949).
T9 construct: Kinases are expressed as either kinase domains or full length constructs; made in house
As to the kind of experiment: Kinase inhibition assay (33P transfer), Ret. The conditions noted are these: Table 6, Ret-1 kinase inhibition class.

SMILES strings stand for the structures. pIC50: −log10 of the molar value.

T3 sequence (P12931 whole entry, species assumed, the tested form may be a part): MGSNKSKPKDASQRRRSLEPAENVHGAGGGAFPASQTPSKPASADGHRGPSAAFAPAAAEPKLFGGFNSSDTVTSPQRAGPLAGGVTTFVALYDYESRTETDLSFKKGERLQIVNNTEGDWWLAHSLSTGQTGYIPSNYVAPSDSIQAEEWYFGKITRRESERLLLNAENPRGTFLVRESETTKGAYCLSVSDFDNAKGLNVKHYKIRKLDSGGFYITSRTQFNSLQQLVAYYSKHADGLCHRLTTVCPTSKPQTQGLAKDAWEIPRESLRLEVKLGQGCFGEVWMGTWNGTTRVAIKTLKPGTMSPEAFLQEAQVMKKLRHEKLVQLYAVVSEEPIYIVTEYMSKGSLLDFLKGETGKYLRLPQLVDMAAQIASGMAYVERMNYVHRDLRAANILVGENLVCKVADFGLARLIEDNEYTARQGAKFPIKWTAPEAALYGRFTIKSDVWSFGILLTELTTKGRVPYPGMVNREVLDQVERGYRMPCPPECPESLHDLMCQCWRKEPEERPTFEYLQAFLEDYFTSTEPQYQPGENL
T6 sequence (Q02763 23-1124, species assumed): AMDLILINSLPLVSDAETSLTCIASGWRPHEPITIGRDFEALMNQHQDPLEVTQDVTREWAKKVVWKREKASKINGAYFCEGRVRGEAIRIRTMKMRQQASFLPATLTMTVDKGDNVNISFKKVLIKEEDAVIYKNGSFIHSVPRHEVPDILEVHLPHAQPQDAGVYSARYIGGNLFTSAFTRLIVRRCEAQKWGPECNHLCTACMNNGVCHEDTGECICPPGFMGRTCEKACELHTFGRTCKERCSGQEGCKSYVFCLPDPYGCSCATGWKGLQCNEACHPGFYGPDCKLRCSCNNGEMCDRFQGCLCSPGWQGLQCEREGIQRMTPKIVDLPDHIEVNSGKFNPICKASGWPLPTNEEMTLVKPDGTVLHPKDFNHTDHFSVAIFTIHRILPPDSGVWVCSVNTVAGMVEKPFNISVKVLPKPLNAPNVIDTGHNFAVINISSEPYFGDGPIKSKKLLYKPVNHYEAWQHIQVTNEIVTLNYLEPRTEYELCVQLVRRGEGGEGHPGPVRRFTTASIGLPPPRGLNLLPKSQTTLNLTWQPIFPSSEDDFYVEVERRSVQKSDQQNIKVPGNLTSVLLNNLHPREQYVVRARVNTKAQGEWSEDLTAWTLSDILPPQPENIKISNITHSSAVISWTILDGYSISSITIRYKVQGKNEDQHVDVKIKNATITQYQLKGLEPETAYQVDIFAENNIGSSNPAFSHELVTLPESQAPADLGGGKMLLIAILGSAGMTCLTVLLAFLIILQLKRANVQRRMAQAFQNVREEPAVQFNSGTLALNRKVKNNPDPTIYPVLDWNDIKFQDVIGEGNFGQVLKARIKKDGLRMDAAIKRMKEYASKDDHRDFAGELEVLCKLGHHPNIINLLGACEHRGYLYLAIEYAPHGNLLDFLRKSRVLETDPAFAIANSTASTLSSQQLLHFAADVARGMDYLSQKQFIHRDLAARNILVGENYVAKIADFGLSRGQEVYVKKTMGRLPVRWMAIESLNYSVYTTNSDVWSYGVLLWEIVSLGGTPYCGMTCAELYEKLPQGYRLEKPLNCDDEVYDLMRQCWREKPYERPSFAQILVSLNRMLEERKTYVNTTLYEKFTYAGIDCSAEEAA
T9 sequence (P07949 29-1114): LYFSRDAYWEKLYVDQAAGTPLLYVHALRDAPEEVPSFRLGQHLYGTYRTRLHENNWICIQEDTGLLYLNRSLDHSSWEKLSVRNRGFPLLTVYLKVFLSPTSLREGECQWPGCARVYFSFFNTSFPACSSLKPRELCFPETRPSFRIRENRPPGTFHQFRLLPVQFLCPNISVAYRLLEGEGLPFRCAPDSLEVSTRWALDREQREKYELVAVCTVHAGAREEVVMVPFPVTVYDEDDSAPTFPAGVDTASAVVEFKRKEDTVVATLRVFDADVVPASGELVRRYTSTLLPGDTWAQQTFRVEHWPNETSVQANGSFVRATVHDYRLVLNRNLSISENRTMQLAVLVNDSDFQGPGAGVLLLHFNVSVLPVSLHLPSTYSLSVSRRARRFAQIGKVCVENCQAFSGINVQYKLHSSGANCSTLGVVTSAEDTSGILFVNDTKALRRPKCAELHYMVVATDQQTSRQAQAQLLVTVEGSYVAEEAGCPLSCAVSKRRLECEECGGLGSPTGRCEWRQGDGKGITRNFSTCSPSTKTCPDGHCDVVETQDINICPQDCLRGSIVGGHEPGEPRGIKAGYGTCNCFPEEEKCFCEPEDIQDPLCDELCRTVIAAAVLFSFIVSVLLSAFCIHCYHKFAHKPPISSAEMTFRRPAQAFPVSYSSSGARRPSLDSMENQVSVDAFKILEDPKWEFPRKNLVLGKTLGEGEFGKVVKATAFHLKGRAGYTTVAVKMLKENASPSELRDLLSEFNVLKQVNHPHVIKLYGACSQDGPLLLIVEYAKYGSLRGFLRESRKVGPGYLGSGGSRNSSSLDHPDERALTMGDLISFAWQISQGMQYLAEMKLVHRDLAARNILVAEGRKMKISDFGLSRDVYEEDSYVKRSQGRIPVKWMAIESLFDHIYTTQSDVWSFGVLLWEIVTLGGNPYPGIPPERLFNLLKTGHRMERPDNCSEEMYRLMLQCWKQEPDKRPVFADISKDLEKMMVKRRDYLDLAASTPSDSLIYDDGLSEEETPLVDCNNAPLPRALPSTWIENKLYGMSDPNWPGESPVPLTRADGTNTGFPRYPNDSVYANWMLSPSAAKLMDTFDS
T1 sequence (P06239 whole entry, species assumed, the tested form may be a part): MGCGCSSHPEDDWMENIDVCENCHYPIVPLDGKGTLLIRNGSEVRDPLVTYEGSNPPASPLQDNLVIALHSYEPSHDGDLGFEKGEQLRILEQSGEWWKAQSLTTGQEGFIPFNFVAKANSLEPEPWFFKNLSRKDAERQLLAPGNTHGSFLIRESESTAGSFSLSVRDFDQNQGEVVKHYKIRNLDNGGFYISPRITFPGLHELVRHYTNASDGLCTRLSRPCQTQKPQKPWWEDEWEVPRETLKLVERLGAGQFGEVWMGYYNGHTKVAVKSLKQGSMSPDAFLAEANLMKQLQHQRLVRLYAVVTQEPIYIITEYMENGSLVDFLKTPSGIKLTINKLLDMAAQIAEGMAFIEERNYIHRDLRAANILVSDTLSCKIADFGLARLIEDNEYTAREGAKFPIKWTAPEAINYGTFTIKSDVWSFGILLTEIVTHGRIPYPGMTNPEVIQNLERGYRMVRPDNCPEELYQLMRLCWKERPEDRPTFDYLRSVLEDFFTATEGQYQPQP
T5 sequence (P00533 25-1210, species assumed): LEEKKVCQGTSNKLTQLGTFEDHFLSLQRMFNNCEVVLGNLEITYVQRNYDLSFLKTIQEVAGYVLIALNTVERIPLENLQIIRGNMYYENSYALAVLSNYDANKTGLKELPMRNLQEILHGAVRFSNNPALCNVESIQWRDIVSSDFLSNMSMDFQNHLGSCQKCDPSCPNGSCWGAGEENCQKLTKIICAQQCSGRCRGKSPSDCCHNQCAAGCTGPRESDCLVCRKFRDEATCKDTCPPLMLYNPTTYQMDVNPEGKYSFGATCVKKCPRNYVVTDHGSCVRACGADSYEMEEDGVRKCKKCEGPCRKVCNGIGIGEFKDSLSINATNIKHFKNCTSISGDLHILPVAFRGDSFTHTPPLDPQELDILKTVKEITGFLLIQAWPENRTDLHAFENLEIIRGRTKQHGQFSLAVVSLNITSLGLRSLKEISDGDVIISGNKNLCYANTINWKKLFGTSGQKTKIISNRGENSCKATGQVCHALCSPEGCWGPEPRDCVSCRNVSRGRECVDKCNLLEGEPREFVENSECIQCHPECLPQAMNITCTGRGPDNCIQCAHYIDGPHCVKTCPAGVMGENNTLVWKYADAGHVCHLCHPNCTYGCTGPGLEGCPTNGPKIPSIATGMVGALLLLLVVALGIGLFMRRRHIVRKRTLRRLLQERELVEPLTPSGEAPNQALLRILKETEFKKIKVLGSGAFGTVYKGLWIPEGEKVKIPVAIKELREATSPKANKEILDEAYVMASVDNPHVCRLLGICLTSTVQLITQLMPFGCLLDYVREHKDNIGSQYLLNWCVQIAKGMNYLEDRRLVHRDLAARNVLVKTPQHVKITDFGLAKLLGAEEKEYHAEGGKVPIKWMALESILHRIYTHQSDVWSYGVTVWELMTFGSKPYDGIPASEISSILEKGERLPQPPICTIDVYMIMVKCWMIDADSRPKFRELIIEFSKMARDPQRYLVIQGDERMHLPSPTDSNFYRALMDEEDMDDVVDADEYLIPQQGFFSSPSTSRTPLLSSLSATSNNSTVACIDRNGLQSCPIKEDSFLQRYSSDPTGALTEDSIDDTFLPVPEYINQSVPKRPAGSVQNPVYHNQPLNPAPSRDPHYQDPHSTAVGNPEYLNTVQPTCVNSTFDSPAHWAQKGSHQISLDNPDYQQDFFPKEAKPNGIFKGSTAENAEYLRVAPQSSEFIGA
T8 sequence (P08631 whole entry, the tested form may be a part): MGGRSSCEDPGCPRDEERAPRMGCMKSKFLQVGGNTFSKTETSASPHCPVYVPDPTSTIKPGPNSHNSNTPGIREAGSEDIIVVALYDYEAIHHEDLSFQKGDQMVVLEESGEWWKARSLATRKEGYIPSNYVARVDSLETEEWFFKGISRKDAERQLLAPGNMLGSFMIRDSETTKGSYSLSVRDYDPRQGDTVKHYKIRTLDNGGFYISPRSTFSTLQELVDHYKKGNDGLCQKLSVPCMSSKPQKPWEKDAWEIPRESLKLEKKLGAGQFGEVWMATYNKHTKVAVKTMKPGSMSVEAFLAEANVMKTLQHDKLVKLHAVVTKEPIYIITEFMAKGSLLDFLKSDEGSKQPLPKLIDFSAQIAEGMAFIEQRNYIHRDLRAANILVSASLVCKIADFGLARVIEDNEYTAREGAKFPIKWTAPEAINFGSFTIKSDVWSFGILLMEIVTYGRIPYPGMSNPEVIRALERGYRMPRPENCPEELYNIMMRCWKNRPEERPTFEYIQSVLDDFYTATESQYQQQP

For `COc1cc(Nc2ncnc(-n3c(=O)[nH]c4ccccc43)n2)cc(OC)c1OC` [Compound 325], the pIC50 was below 4.94 on Lck; 4.94 to 5.05 on Lyn; below 4.94 against Src; below 4.94 at Zap-70; 4.94 to 5.05 on EGFR; below 4.94 at Tek. Moreover, the pIC50 on EPHB4, against Hck-1 and on Ret-1 was below 4.94 each time.
Regarding `COc1cc(Nc2ncnc(Nc3ccc(C(=O)O)cc3)n2)cc(OC)c1OC` [Compound 104], the pIC50 on Lck was 5.06 to 5.22; against Lyn, below 4.95; against Src, 5.06 to 5.22; at Zap-70, below 4.95; on EGFR it was 5.22 to 6.00; at Tek it was below 4.95. Moreover, the pIC50 is above 6.00 at EPHB4, below 4.95 on Hck-1 and below 4.95 on Ret-1.
`COc1cc(Nc2ncnc(-n3ncc4ccccc43)n2)cc(OC)c1OC` [Compound 240]: the pIC50 at Lck was 5.20 to 5.98; against Lyn, 5.20 to 5.98; at Src, 4.92 to 5.03; on Zap-70 it was below 4.92; on EGFR, below 4.92; at Tek, below 4.92. In addition, the figures for the pIC50 on EPHB4, against Hck-1 and against Ret-1 were below 4.92, below 4.92 and 5.03 to 5.20, respectively.
With `COc1cc(Nc2ncnc(Nc3cc(C(C)(C)C)[nH]n3)n2)cc(OC)c1OC` [Compound 313], the pIC50 at Lck was 5.22 to 6.00; against Lyn it was above 6.00; against Src, above 6.00; on Zap-70, below 4.95; at EGFR, 5.22 to 6.00; on Tek, below 4.95. For the same compound, the pIC50 on EPHB4 is 5.22 to 6.00; at Hck-1, 5.06 to 5.22; against Ret-1, 5.22 to 6.00.
As for `Cc1cccc(Nc2ncnc(Nc3ccc4[nH]ncc4c3)n2)c1` [Compound 120], the pIC50 was 4.85 to 4.96 at Lck; above 5.90 on Lyn; 5.12 to 5.90 against Src; 4.85 to 4.96 at Zap-70; above 5.90 at EGFR; 4.96 to 5.12 at Tek. Further, the pIC50 is 5.12 to 5.90 on EPHB4, 5.12 to 5.90 on Hck-1 and above 5.90 at Ret-1.
`COc1cc(Nc2ncnc(Nc3ccc(C)c(NS(C)(=O)=O)c3)n2)cc(OC)c1OC` [Compound 305]: the pIC50 on Lck is 5.28 to 6.06; at Lyn, above 6.06; against Src, above 6.06; at Zap-70, below 5.01; at EGFR, 5.28 to 6.06; at Tek it was below 5.01. In addition, the pIC50 at EPHB4 is 5.28 to 6.06; against Hck-1, 5.12 to 5.28; against Ret-1, above 6.06.
Regarding `COc1cc(Nc2ncnc(Nc3ccc(Cl)cc3F)n2)cc(OC)c1OC` [Compound 306], the pIC50 on Lck was 5.23 to 6.01; against Lyn, above 6.01; against Src, 5.23 to 6.01; at Zap-70, below 4.96; on EGFR, above 6.01; at Tek it was below 4.96. Also, the pIC50 on EPHB4 is 5.23 to 6.01; on Hck-1, 4.96 to 5.06; on Ret-1, above 6.01.
Take `COc1cc(Nc2ncnc(N(CC(=O)O)c3ccc4c(c3)OCO4)n2)cc(OC)c1OC` [Compound 319]: the pIC50 was below 5.01 at Lck; below 5.01 against Lyn; below 5.01 against Src; below 5.01 at Zap-70; 5.28 to 6.06 at EGFR; below 5.01 at Tek. Also, the pIC50 at EPHB4, against Hck-1 and against Ret-1 was below 5.01 each time.
Consider `COc1ccc(Nc2ncnc(Nc3cc(OC)c(OC)c(OC)c3)n2)cc1O` [Compound 931], for which the pIC50 is 5.22 to 6.00 on Lck; above 6.00 at Lyn; above 6.00 at Src; below 4.95 at Zap-70; above 6.00 at EGFR; 4.95 to 5.06 on Tek. Also, the pIC50 at EPHB4 was 5.22 to 6.00; at Hck-1, 5.22 to 6.00; at Ret-1, above 6.00.
As for `COc1cc(Nc2ncnc(N(C/C=C/c3ccccc3)c3ccc(Cl)cc3)n2)cc(OC)c1OC` [Compound 56], the pIC50 at Lck was 5.16 to 5.32; on Lyn, 5.32 to 6.10; against Src, below 5.05; on Zap-70, below 5.05; on EGFR, above 6.10; at Tek, below 5.05. The pIC50 at EPHB4, against Hck-1 and on Ret-1 was below 5.05 throughout.
Take `COc1cc(Nc2ncnc(N3CCc4cc([N+](=O)[O-])ccc43)n2)cc(OC)c1OC` [Compound 187]: the pIC50 at Lck, on Lyn, at Src, at Zap-70, at EGFR and at Tek was below 4.97 each time. The pIC50 on EPHB4, at Hck-1 and against Ret-1 was below 4.97 each time.
Regarding `COc1cc(Nc2ncnc(Nc3nc4ccccc4n3C)n2)cc(OC)c1OC` [Compound 938], the pIC50 at Lck, against Lyn, against Src, at Zap-70, at EGFR and at Tek was below 4.96 each time. Moreover, the pIC50 on EPHB4, against Hck-1 and against Ret-1 was below 4.96 each time.
In the case of `COc1ccc(Nc2ncnc(Nc3ccc4[nH]ccc4c3)n2)cc1OC` [Compound 115], the pIC50 at Lck is 5.18 to 5.96; at Lyn it was 5.02 to 5.18; at Src, 5.02 to 5.18; on Zap-70 it was below 4.91; on EGFR, above 5.96; on Tek, below 4.91. For the same compound, the pIC50 on EPHB4 was 4.91 to 5.02; against Hck-1, below 4.91; against Ret-1, 5.18 to 5.96.
As to `COc1ccc2c(c1)c(CCNC(C)=O)cn2-c1ncnc(Nc2cc(OC)c(OC)c(OC)c2)n1` [Compound 339], the pIC50 at Lck, against Lyn, at Src, on Zap-70, on EGFR and at Tek was below 5.04 each time. For the same compound, the values for the pIC50 on EPHB4, at Hck-1 and at Ret-1 were below 5.04, below 5.04 and above 6.09, respectively.

Source of the values: patent publication US7074789B2, “Kinase inhibitors” (Amgen Inc., priority 1999, dated 2006).
